# Several values for one entry are separate records, joined by “and”; a condition that tells them apart may be missing. Identical values can stand only once.
# Legend:
# Assay type in all cases: cell-based
# [1] = system: EOC 13.31 microglia cells; experiment: NO release inhibition in LPS/IFNγ stimulated microglia, concurrent treatment, Griess reaction at 24 hours (Example 6); conditions: for OD Values: Griess; for OD Values / NO release: single replicates; for inhibition at 50 µM: Microglia
# Method: The purpose of this experiment was to screen compounds 3, 4, 21, 26, 51, 52, 66, and 78 for their ability to inhibit Nitric oxide release from microglia. […] EOC 13.31 microglia cells were plated into 96 well plates for 24 hours. Confluent cells were treated with 50 μM of the bis- and tris-dihydroxyaryl compounds either with or without stimulation at 1 pg/ml LPS, and 1 ng/ml IFNγ. NO release was measured at 24 hours using the Griess reaction which is a spectrophotometric measure of NO release (reagents from Promega).
# [2] = system: EOC 13.31 microglial cells; experiment: NO release inhibition screen in LPS/IFNγ stimulated microglia, Griess reaction at 48 hours (Example 7)
# Method: In this experiment, additional bis- and tris-dihydroxyaryl compounds were screened for their ability to inhibit nitric oxide release from microglial cells. Microglial cells stimulated with LPS/IFNγ release nitric oxide. […] This is a continuation of screening experiments. EOC 13.31 microglial cells were plated into 96 well plates. At 24 hours and at confluency, cells were treated with 10 μg/ml LPS/10 ng/ml IFNγ+50 uM bis- and tris-dihydroxyaryl compounds.
# [3] = system: Microglial cells; experiment: Dose response inhibition of NO release from microglia, 0.75-200 μM (Example 8); conditions: for Avg % Inhibition / μM NO release Avg / % inhibition / OD values (printed under head μM NO release) / μM NO release: 48 hours; for % inhibition / OD values (printed under head μM NO release) / μM NO release: single replicates
# Method: This experiment was designed to determine dose response inhibition of NO release from microglia by bis- and tris-dihydroxyaryl compounds when stimulated with LPS/IFNγ. […] This experiment is designed to determine a dose response for various bis- and tris-dihydroxyaryl compounds. Microglial cells were plated into 96 well plates at 1×10^5 cells/ml. […] The doses tested were: 0.75 μM, 1.56 μM, 3.125 μM, 6.25 μM, 12.5 μM, 25 μM, 50 μM, 100 μM and 200 μM. Nitric oxide release was measured after 48 hours using the Griess reaction.
# [4] = system: EOC 13.31 microglia cells; experiment: Inhibition of NO release from microglia following 24 hours pretreatment (Example 10); conditions: for inhibition at 50 µM: Microglia
# In short: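 Confluent EOC 13.31 cells pretreated 24 hours with 50 μM compound (from 10 mM DMSO stock), then stimulated with 10 μg/ml LPS plus 10 ng/ml IFNγ without media change. After a further 48 hours, NO release was measured by Griess Reaction.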
# [5] = system: microglia; experiment: Ranking of NO release inhibition (Example 12); conditions: ranking table
# From the text: The bis- and tris-dihydroxyaryl compounds were ranked in order of effectiveness for the inhibition of NO release as set out in Table 8.
# [6] = system: TNF-α release from microglia; experiment: TNF-α release from LPS/IFNγ stimulated microglia, TNF-α ELISA (Example 11); conditions: 50 uM compound, TNF-α release, 10 ug LPS and 10 ng IFNγ, 24 hours
# Method: Also, bis- and tris-dihydroxyaryl compound's ability to inhibit NO release strongly supports their interference with the inflammatory cascade and utlimately inhibition of inflammation. Microglia cells were plated at 1×10^5 cells/ml into 96 well plates. At day three, they were treated with 50 μM bis- and tris-dihydroxyaryl compound for 1 hour and then exposed to 10 μg/ml LPS+10 ng/ml IFNγ for 24 hours. 10 μl of media was removed and stored at −80° until TNF-α ELISA assays were performed. Samples were diluted 1:50 before running the TNF-α ELISA (kit commercially available from Sigma).
# [7] = Compound + LPS/IFNγ, 50 μM, 24 hours
# [8] = Compound Only (without LPS/IFNγ), 50 μM, 24 hours
# [9] = 50 uM + 10 μg/ml LPS/10 ng/ml IFNγ, 48 hours
# [10] = 50 uM + 10 μg/ml LPS/10 ng/ml IFNγ, 48 hours, single replicates
# [11] = 50 uM pretreatment 24 hours, then LPS/IFNγ 48 hours, single replicates
smiles,measurement,setting,value
"Oc1ccc(Cc2ccc(O)c(O)c2)cc1O [Compound 3, 3,4,3′,4′-tetrahydroxydiphenylmethane]","inhibition of NO release, in words","[1]; 50 μM, LPS/IFNγ stimulated microglial cells",very effective inhibitors of NO release
same,% inhibition of NO release,[1]; [7],48.8%
same,"NO release, Avg",[1]; [7],9.5299 µM
same,OD Values,[1]; [7],0.094 and 0.137 and 0.145
same,NO release,[1]; [7],6.0450 µM and 10.8259 µM and 11.7188 µM
same,"NO release, Avg",[1]; [8],1.0417 µM
same,OD Values,[1]; [8],0.053 (2×) and 0.054
same,NO release,[1]; [8],1.0000 uM (2×) and 1.1250 uM
same,% Inhibition (summary of inhibition of NO release),"[1]; Table 2 summary, 50 μM, LPS/IFNγ, 24 hours",48.8%
same,Avg. % Inhibition,[2]; [9],96.40%
same,μM NO release Avg,[2]; [9],1.000 µM
same,OD values (printed under head μM NO release),[2]; [10],0.064 and 0.055 and 0.062
same,μM NO release,[2]; [10],1.393 µM and 0.429 µM and 1.179 µM
same,% inhibition,"[2]; 50 uM + 10 μg/ml LPS/10 ng/ml IFNγ, 48 hours, single replicates, 50 µM",98.46% and 95.75% and 94.98%
same,"inhibition of NO release, in words","[2]; 50 uM, LPS/IFNγ stimulated microglia",effective inhibitors of NO release
same,Avg % Inhibition,[3]; dose 0.75 μM,−8.947%
same,μM NO release Avg,[3]; dose 0.75 μM,21.563 µM
same,% inhibition,[3]; dose 0.75 μM,−3.42% and −6.58% and −16.84%
same,OD values (printed under head μM NO release),[3]; dose 0.75 μM,0.2 and 0.183 and 0.187
same,μM NO release,[3]; dose 0.75 μM,23.125 µM and 20.469 µM and 21.094 µM
same,μM NO release Avg,[3]; dose 1.56 μM,19.792 µM
same,% inhibition,[3]; dose 1.56 μM,3.68% (2×) and −7.37%
same,OD values (printed under head μM NO release),[3]; dose 1.56 μM,0.188 and 0.174 (2×)
same,μM NO release,[3]; dose 1.56 μM,21.250 μM and 19.063 μM (2×)
same,Avg % Inhibition,[3]; dose 3.125 μM,0.789%
same,μM NO release Avg,[3]; dose 3.125 μM,19.635 µM
same,% inhibition,[3]; dose 3.125 μM,2.89% and 5.26% and −5.79%
same,OD values (printed under head μM NO release),[3]; dose 3.125 μM,0.186 and 0.175 and 0.172
same,μM NO release,[3]; dose 3.125 μM,20.938 µM and 19.219 µM and 18.750 µM
same,Avg % Inhibition,[3]; dose 6.25 μM,7.368%
same,μM NO release Avg,[3]; dose 6.25 μM,18.333 µM
same,% inhibition,[3]; dose 6.25 μM,10.79% and 10.00% and 1.32%
same,OD values (printed under head μM NO release),[3]; dose 6.25 μM,0.177 and 0.165 and 0.166
same,μM NO release,[3]; dose 6.25 μM,19.531 µM and 17.656 µM and 17.813 µM
same,Avg % Inhibition,[3]; dose 12.5 μM,6.579%
same,μM NO release Avg,[3]; dose 12.5 μM,18.490 µM
same,% inhibition,[3]; dose 12.5 μM,10.00% and 2.89% and 6.84%
same,OD values (printed under head μM NO release),[3]; dose 12.5 μM,0.17 and 0.166 and 0.175
same,μM NO release,[3]; dose 12.5 μM,18.438 µM and 17.813 µM and 19.219 µM
same,Avg % Inhibition,[3]; dose 25 μM,14.737%
same,μM NO release Avg,[3]; dose 25 μM,16.875 µM
same,% inhibition,[3]; dose 25 μM,22.63% and 10.00% and 11.58%
same,OD values (printed under head μM NO release),[3]; dose 25 μM,0.164 and 0.15 and 0.166
same,μM NO release,[3]; dose 25 μM,17.500 µM and 15.313 µM and 17.813 µM
same,Avg % Inhibition,[3]; dose 50 μM,47.368%
same,μM NO release Avg,[3]; dose 50 μM,10.417 µM
same,% inhibition,[3]; dose 50 μM,48.68% and 46.32% and 47.11%
same,OD values (printed under head μM NO release),[3]; dose 50 μM,0.119 and 0.117 and 0.12
same,μM NO release,[3]; dose 50 μM,10.469 µM and 10.156 µM and 10.625 µM
same,Avg % Inhibition,[3]; dose 100 μM,62.368%
same,μM NO release Avg,[3]; dose 100 μM,7.448 µM
same,% inhibition,[3]; dose 100 μM,64.47% and 60.53% and 62.11%
same,OD values (printed under head μM NO release),[3]; dose 100 μM,0.1 and 0.097 and 0.102
same,μM NO release,[3]; dose 100 μM,7.500 µM and 7.031 µM and 7.813 µM
same,Avg % Inhibition,[3]; dose 200 μM,67% and 67.105%
same,μM NO release Avg,[3]; dose 200 μM,6.510 µM
same,% inhibition,[3]; dose 200 μM,68.42% and 66.84% and 66.05%
same,OD values (printed under head μM NO release),[3]; dose 200 μM,0.095 and 0.092 and 0.094
same,μM NO release,[3]; dose 200 μM,6.719 µM and 6.250 µM and 6.563 µM
same,"inhibition of NO release, in words",[3]; dose response 0.75-200 μM,effective inhibitors of NO release
same,Avg % Inhibition,"[4]; 50 uM pretreatment 24 hours, then LPS/IFNγ 48 hours",79.87%
same,% inhibition,[4]; [11],86.74% and 69.63% and 83.24%
same,OD values (printed under head μM NO release),[4]; [11],0.206 and 0.163 and 0.153
same,μM NO release,[4]; [11],6.000 µM and 3.313 µM and 2.621 µM
same,% Inhibition at 50 μM (NO release),[5],30%
"O=C(NCc1ccc(O)c(O)c1)c1ccc(O)c(O)c1 [Compound 52, 3,4-dihydroxybenzoic acid 3,4-dihydroxybenzylamide]","NO release, Avg",[1]; [7],16.2840 µM
same,"NO release, Avg",[1]; [8],-0.0417 µM
same,inhibition at 50 µM,"[1]; Compound + LPS/IFNγ, 24 hours, read-out: % inhibition of NO release",12.6%
same,inhibition at 50 µM,"[1]; Table 2 summary, LPS/IFNγ, 24 hours, read-out: % Inhibition (summary of inhibition of NO release)",12.6%
same,% inhibition,[4]; [11],80.39% and 81.34%
same,inhibition at 50 µM,"[4]; 50 uM pretreatment 24 hours, then LPS/IFNγ 48 hours, read-out: Avg % Inhibition",80%
same,inhibition at 50 µM,"[4]; 50 uM pretreatment 24 hours, then LPS/IFNγ 48 hours, single replicates, read-out: % inhibition",78.2%
same,inhibition at 50 µM,"[4]; 50 μM pretreatment, read-out: inhibition of NO release following pretreatment",> 75%
same,% inhibition,"[6]; individual replicates, 50 µM",−12.27% and −26.58% and −30.69%
same,inhibition at 50 µM,"[6]; Microglia, 24 h, read-out: Avg % Inhibition",-23.2%
same,inhibition at 50 µM,[5]; Microglia,13%
